Tests used:
Adenosine receptor A2a [1] = biological target: T1, Adenosine receptor A2a (Homo sapiens, UniProt P29274); assay: biochemical
[2] = biological target: T2, Adenosine receptor A3 (Homo sapiens) (UniProt P0DMS8); assay: Displacement of [3H]AB-MECA from human adenosine A3 receptor expressed in HEK293 cell membrane at 1 uM; type: cell membranes
T2 sequence (whole entry): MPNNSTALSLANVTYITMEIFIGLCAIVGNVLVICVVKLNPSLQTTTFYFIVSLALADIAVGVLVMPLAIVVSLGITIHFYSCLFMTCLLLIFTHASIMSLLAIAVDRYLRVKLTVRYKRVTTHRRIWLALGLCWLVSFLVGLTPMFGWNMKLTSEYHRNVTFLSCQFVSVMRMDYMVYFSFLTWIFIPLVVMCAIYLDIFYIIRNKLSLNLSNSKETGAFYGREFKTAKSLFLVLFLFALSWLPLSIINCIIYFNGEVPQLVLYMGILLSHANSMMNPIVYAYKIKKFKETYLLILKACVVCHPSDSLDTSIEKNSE

Adenosine receptor A1 = biological target: T3, Adenosine receptor A1 (Homo sapiens, UniProt P30542); assay: biochemical
T3 sequence (P30542 whole entry): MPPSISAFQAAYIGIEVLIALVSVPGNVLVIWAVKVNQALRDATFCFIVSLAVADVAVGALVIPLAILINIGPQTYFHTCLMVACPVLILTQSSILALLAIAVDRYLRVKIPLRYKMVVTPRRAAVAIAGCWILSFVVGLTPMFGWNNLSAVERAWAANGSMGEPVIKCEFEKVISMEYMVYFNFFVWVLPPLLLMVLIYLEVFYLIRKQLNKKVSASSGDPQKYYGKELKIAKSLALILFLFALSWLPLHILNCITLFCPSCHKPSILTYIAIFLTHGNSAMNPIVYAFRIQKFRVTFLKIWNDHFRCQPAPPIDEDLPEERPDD

[3] = biological target: T4, Adenosine receptor A2b (Homo sapiens) (UniProt P29275); assay: Displacement of [3H]MRS1754 from human adenosine A2B receptor expressed in CHO cell membrane at 1 uM; type: cell membranes
T4 sequence (whole entry): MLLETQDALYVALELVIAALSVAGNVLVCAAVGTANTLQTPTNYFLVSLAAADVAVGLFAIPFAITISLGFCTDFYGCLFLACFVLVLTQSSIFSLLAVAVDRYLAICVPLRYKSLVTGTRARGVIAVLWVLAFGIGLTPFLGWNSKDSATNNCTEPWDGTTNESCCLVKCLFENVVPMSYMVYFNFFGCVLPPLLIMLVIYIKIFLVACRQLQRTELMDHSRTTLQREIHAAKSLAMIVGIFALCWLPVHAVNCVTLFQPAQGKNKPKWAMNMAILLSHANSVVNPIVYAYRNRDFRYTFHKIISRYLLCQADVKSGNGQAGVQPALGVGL

Adenosine receptor A3 = biological target: T5, Adenosine receptor A3 (Homo sapiens, UniProt P0DMS8); assay: biochemical
T5 sequence (P0DMS8 whole entry): T2 sequence (whole entry)

Adenosine receptor A2a [4] = biological target: T1, Adenosine receptor A2a; assay: Displacement of [3H]ZM241385 from human adenosine A2A receptor expressed in HEK293 cell membrane at 1 uM; type: cell membranes
Adenosine receptor A2a [5] = biological target: T1, Adenosine receptor A2a
Description: Binding affinity to human adenosine A2A receptor

Adenosine receptor A2b = biological target: T6, Adenosine receptor A2b (Homo sapiens, UniProt P29275); assay: Displacement of [3H]MRS1754 from human adenosine A2B receptor expressed in CHO cell membrane; type: cell membranes
T6 sequence (P29275 whole entry): T4 sequence (whole entry)

[6] = biological target: T7, Adenosine receptor A1 (Homo sapiens) (UniProt P30542); assay: Displacement of [3H]DPCPX from human adenosine A1 receptor expressed in CHO cell membrane at 1 uM; type: cell membranes
T7 sequence (whole entry): T3 sequence (P30542 whole entry)

Adenosine receptor A2a [7] = biological target: T1, Adenosine receptor A2a; assay: Displacement of [3H]ZM241385 from human adenosine A2A receptor expressed in HEK293 cell membrane

T1 sequence (P29274 whole entry): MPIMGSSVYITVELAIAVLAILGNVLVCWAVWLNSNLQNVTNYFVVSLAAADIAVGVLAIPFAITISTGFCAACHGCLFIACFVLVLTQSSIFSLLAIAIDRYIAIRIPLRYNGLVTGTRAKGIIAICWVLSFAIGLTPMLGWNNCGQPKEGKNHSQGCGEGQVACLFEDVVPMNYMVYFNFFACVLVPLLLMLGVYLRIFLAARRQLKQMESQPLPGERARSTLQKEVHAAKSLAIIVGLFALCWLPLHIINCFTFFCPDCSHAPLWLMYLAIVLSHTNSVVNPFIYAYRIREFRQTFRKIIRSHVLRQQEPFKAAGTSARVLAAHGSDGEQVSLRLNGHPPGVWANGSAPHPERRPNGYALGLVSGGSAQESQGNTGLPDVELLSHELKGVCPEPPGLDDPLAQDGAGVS

Ki (Adenosine receptor A2a [1])	Activity [2]	Ki (Adenosine receptor A1)	Activity [3]	SMILES	other results
88 nM	32%	12 nM	41%	N#Cc1c(-c2ccccc2)cc(-c2cccs2)nc1N	
140 nM	21%	48 nM	33%	N#Cc1c(-c2ccc(Cl)cc2)cc(-c2ccco2)nc1N	
130 nM	53%	14 nM	26%	N#Cc1c(-c2ccccc2)cc(-c2ccccc2)nc1N	
	21%		15%	Cc1ccc(-c2cc(-c3ccco3)nc(N)c2C#N)cc1	Activity [6]: 47%; Activity (Adenosine receptor A2a [4]): 45%
	13%	270 nM	29%	N#Cc1c(-c2cccc(OC(F)(F)F)c2)cc(-c2ccco2)nc1N	Activity (Adenosine receptor A2a [7]): 260 nM
130 nM	33%	15 nM	37%	Cc1cccc(-c2cc(-c3ccccc3)nc(N)c2C#N)c1	
15 nM	24%	100 nM		Cc1ccc(-c2cc(-c3ccco3)nc(N)c2C#N)o1	Ki (Adenosine receptor A2b): 440 nM
190 nM	14%	68 nM	12%	N#Cc1c(-c2ccc(Cl)c(Cl)c2)cc(-c2ccco2)nc1N	
140 nM	18%	64 nM		Cc1cccc(-c2cc(-c3ccco3)nc(N)c2C#N)c1	Ki (Adenosine receptor A2b): 620 nM
	21%		33%	COc1ccc(-c2cc(-c3ccco3)nc(N)c2C#N)cc1	
41 nM	34%	54 nM		N#Cc1c(-c2ccc(O)cc2)cc(-c2ccco2)nc1N	Ki (Adenosine receptor A2b): 370 nM
	7%		8%	CC(C)Oc1ccc(-c2cc(-c3ccco3)nc(N)c2C#N)cc1	Activity [6]: 19%; Activity (Adenosine receptor A2a [4]): 6%
640 nM	0%		35%	N#Cc1c(-c2ccccc2)cc(-c2ccc[nH]2)nc1N	Activity [6]: 28%
	18%	61 nM	18%	N#Cc1c(-c2ccc(O)cc2)cc(-c2ccccc2)nc1N	Activity (Adenosine receptor A2a [4]): 17%
92 nM	20%	250 nM	31%	COc1ccc(-c2cc(-c3ccco3)nc(N)c2C#N)cc1OC	
	4%		17%	N#Cc1c(-c2ccc(-c3ccccc3)cc2)cc(-c2ccco2)nc1N	Activity [6]: 0%; Activity (Adenosine receptor A2a [4]): 0%
	17%		2%	CN(C)c1ccc(-c2cc(-c3ccco3)nc(N)c2C#N)cc1	Activity [6]: 11%; Activity (Adenosine receptor A2a [4]): 3.8%
	2%		4%	CN(C)c1ccc(-c2cc(-c3ccccc3)nc(N)c2C#N)cc1	Activity [6]: 12%; Activity (Adenosine receptor A2a [4]): 1%

The next lines start with the compound.

SMILES	Ki (Adenosine receptor A2a [1])	Activity [2]	Ki (Adenosine receptor A1)	Activity [3]	other results
N#Cc1c(-c2cccs2)cc(-c2cccs2)nc1N	32 nM	31%	43 nM	19%	
N#Cc1c(-c2ccc3c(c2)OCO3)cc(-c2ccco2)nc1N	26 nM		11 nM	24%	Ki (Adenosine receptor A3): 390 nM
N#Cc1c(-c2ccc3c(c2)OCO3)cc(-c2ccccc2)nc1N		48%	7 nM	0%	Activity (Adenosine receptor A2a [4]): 34%
CC(C)c1ccc2c(c1)-c1nc(N)nc(-c3ccc(Br)o3)c1C2					Ki (Adenosine receptor A2a [5]): 0.8 nM
N#Cc1c(-c2cccs2)cc(-c2ccccc2)nc1N	54 nM	11%	22 nM	44%	
N#Cc1c(-c2ccco2)cc(-c2ccccc2)nc1N	19 nM	29%	5.8 nM		Ki (Adenosine receptor A2b): 220 nM
OC[C@H]1O[C@@H](n2cnc3c(NC4CCCC4)ncnc32)[C@H](O)[C@@H]1O [N6-CYCLOPENTYLADENOSINE]	1700 nM				
Nc1nc(N2CCN3C[C@@H](COc4cccc(F)c4)CC[C@H]3C2)nc2nc(-c3ccco3)nn12					Ki (Adenosine receptor A2a [5]): 0.2 nM
Nc1nc(CN[C@H]2CCCN2Cc2ccnc(Cl)c2)nc2nc(-c3ccco3)nn12					Ki (Adenosine receptor A2a [5]): 4 nM
Nc1nc(-c2ccco2)c2ncn(C(=O)NCc3ccccc3)c2n1					Ki (Adenosine receptor A2a [5]): 1.1 nM
N#Cc1c(-c2cccc(OC(F)(F)F)c2)cc(-c2ccccc2)nc1N	58 nM	28%	34 nM	7%	
CC(O)(C#Cc1cn2nc(-c3ccco3)nc2c(N)n1)Cc1ccncc1 (centres undefined)					Ki (Adenosine receptor A2a [5]): 1.1 nM
Nc1nc2c(cnn2CCc2ccc(S(=O)(=O)N(CCO)CCO)cc2)c2nc(-c3ccco3)nn12					Ki (Adenosine receptor A2a [5]): 0.12 nM
N#Cc1c(-c2ccccc2)cc(-c2ccco2)nc1N	11 nM	28%	28 nM		Ki (Adenosine receptor A2b): 170 nM
CC(C)(C)OC(=O)N1CCN(c2cccc(-c3cc4nc(-c5ccco5)nn4c(N)n3)c2)CC1					Ki (Adenosine receptor A2a [5]): 0.5 nM
Nc1nc(C(=O)NCCc2ccc(O)cc2)cn2nc(-c3ccco3)nc12					Ki (Adenosine receptor A2a [5]): 1 nM
COc1ccccc1-c1cc2nc(-c3ccco3)nn2c(N)n1					Ki (Adenosine receptor A2a [5]): 4.3 nM
N#Cc1c(-c2ccco2)cc(-c2ccco2)nc1N	1 nM	33%	12 nM		Ki (Adenosine receptor A2b): 34 nM
N#Cc1c(-c2cccs2)cc(-c2ccco2)nc1N	1.4 nM	51%	28 nM		Ki (Adenosine receptor A2b): 75 nM
COc1ccc(-c2cc(-c3ccccc3)nc(N)c2C#N)cc1OC	160 nM	32%	66 nM	13%	
N#Cc1c(-c2ccco2)cc(-c2cccs2)nc1N	12 nM	39%	29 nM		Ki (Adenosine receptor A2b): 380 nM
